Data as given in patent US11339130B1 (Blade Therapeutics, Inc., priority 2016, dated 2022).
Counter-ions that a name gives are not always drawn.

Key:
Format in all cases: biochemical
Human Calpain 1/NS1 = biological target: T1, Human Calpain 1/NS1 (Homo sapiens, UniProt P07384); test: Calpain inhibition continuous fluorescence (FRET) assay, Human Calpain 1/NS1; settings: read-out: Human Calpain 1/NS1 IC50
T1 sequence (P07384 1-714): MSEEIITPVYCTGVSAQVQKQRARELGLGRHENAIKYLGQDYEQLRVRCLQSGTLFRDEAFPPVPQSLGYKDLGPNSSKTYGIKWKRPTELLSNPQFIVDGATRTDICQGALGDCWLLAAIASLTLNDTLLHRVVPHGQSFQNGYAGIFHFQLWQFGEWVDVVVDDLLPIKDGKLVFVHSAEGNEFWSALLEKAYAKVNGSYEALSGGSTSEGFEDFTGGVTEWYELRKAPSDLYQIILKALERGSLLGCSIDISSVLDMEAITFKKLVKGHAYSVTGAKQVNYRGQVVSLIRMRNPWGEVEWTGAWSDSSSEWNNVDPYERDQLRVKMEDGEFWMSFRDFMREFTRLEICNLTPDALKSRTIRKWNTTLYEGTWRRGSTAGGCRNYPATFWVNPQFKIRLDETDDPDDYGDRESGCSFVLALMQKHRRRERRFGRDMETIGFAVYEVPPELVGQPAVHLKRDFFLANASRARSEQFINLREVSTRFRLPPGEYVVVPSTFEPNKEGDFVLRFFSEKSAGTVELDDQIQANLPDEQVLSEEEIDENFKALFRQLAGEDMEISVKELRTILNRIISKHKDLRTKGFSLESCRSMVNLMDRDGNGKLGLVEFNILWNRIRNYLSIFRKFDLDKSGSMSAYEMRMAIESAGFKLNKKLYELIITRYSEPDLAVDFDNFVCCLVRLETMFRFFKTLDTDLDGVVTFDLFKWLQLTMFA
T1 sequence (P04632 1-268 partner): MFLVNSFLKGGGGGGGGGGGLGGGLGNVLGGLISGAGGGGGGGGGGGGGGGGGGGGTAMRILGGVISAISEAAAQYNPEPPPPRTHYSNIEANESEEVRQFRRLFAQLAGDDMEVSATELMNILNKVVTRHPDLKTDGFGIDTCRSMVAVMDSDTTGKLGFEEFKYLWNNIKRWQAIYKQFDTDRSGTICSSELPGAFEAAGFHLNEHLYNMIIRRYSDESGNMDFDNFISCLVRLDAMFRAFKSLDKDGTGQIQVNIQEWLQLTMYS
Method in brief: (§1)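 Continuous FRET read (ex 490/em 520 nm, 10 min) of calpain 1, 2 or 9 cleaving an internally quenched 5-FAM peptide, triggered by substrate with CaCl2 after enzyme–inhibitor incubation at ambient 25 °C, pH 7.5 Tris/NaCl/DTT buffer. IC50 from initial rates (1-5 min) via 4-parameter fit.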

Human Calpain 9/NS1 = biological target: T2, Human Calpain 9/NS1 (Homo sapiens, UniProt O14815); test: Calpain inhibition continuous fluorescence (FRET) assay, Human Calpain 9/NS1; settings: read-out: Human Calpain 9/NS1 IC50
T2 sequence (O14815 1-690): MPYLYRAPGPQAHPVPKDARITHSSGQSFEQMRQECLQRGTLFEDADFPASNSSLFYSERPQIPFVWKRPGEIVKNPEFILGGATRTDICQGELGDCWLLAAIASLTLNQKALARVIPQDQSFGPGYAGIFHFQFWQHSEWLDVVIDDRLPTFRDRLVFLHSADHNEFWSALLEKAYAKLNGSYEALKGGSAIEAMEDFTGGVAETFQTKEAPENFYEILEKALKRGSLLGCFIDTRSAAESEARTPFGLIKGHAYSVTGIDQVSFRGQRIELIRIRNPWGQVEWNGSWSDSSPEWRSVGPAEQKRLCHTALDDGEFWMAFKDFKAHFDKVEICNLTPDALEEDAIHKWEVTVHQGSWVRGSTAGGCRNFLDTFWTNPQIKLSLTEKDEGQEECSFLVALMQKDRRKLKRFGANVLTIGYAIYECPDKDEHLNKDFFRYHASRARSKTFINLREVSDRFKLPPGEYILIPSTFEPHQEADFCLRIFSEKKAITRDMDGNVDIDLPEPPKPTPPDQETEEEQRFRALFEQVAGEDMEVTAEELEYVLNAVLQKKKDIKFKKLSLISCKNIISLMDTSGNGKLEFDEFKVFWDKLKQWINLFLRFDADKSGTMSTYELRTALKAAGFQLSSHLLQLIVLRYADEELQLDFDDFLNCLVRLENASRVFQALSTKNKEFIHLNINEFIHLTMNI
T2 sequence (P04632 1-268 partner): T1 sequence (P04632 1-268 partner)
Method in brief: as §1

Human Calpain 2/NS1 = biological target: T3, Human Calpain 2/NS1 (Homo sapiens, UniProt P17655); test: Calpain inhibition continuous fluorescence (FRET) assay, Human Calpain 2/NS1; settings: read-out: Human Calpain 2/NS1 IC50
T3 sequence (P17655 1-700): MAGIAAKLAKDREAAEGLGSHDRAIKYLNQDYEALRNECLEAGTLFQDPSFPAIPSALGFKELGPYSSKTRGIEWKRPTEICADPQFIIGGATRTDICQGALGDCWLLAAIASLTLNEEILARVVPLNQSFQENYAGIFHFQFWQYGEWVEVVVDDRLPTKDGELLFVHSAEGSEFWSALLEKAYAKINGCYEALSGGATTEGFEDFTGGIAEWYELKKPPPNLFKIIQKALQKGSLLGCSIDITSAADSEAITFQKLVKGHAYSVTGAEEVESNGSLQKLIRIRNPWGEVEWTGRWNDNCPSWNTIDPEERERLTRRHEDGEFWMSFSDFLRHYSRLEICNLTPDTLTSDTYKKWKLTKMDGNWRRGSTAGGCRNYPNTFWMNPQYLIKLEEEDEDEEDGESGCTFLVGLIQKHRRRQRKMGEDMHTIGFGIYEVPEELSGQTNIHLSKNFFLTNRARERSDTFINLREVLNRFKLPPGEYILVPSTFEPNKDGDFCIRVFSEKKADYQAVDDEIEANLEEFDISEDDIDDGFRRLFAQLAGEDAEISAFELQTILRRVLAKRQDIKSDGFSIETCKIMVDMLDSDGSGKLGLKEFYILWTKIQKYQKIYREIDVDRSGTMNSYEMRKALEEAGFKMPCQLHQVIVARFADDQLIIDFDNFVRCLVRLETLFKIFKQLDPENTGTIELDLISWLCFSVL
T3 sequence (P04632 1-268 partner): T1 sequence (P04632 1-268 partner)
Method in brief: as §1

| Compound | IC50 (Human Calpain 1/NS1) [µM] | IC50 (Human Calpain 9/NS1) [µM] | IC50 (Human Calpain 2/NS1) [µM] |
| --- | --- | --- | --- |
| Cn1cc(C(=O)NC(Cc2ccccc2)C(=O)C(N)=O)c(N2CCS(=O)(=O)CC2)n1 (stereo not drawn) [Compound 613, N-(4-amino-3,4-dioxo-1-phenylbutan-2-yl)-3-(1,1-dioxidothiomorpholino)-1-methyl-1H-pyrazole-4-carboxamide] | 3 to 10 | < 3 | 3 to 10 |
| Cn1cc(C(=O)NC(Cc2ccccc2)C(=O)C(N)=O)c(N2CCOCC2)n1 (stereo not drawn) [Compound 614, N-(4-amino-3,4-dioxo-1-phenylbutan-2-yl)-1-methyl-3-morpholino-1H-pyrazole-4-carboxamide] | 3 to 10 | 3 to 10 | 3 to 10 |
| Cn1cc(C(=O)NC(Cc2ccccc2)C(=O)C(N)=O)c(C2CC2)n1 (stereo not drawn) [Compound 616, N-(4-amino-3,4-dioxo-1-phenylbutan-2-yl)-3-cyclopropyl-1-methyl-1H-pyrazole-4-carboxamide] | 3 to 10 | 3 to 10 | < 3 |
| Cn1cc(C(=O)NC(Cc2ccccc2)C(=O)C(N)=O)c(C2CCOCC2)n1 (stereo not drawn) [Compound 617, N-(4-amino-3,4-dioxo-1-phenylbutan-2-yl)-1-methyl-3-(tetrahydro-2H-pyran-4-yl)-1H-pyrazole-4-carboxamide] | 3 to 10 | < 3 | < 3 |
| Cc1nc(-c2cccc3c2OC(F)(F)O3)c(C(=O)NC(Cc2ccccc2)C(=O)C(N)=O)o1 (stereo not drawn) [Compound 618, N-(4-amino-3,4-dioxo-1-phenylbutan-2-yl)-4-(2,2-difluorobenzo[d][1,3]dioxol-4-yl)-2-methyloxazole-5-carboxamide] | < 3 | < 3 | < 3 |
| COc1ccc(F)c(-c2oncc2C(=O)NC(Cc2ccccc2)C(=O)C(N)=O)c1 (stereo not drawn) [Compound 619, N-(4-amino-3,4-dioxo-1-phenylbutan-2-yl)-5-(2-fluoro-5-methoxyphenyl)isoxazole-4-carboxamide] | < 3 | < 3 | < 3 |
| Cn1cc(C(=O)NC(Cc2ccccc2)C(=O)C(N)=O)c(C2CCCC2)n1 (stereo not drawn) [Compound 620, N-(4-amino-3,4-dioxo-1-phenylbutan-2-yl)-3-cyclopentyl-1-methyl-1H-pyrazole-4-carboxamide] | < 3 | 3 to 10 | < 3 |
| NC(=O)C(=O)C(Cc1ccccc1)NC(=O)c1cn(C(F)F)nc1-c1ccc2ncccc2c1 (stereo not drawn) [Compound 622, N-(4-amino-3,4-dioxo-1-phenylbutan-2-yl)-1-(difluoromethyl)-3-(quinolin-6-yl)-1H-pyrazole-4-carboxamide hydrochloride] | < 3 | < 3 | < 3 |
| Cn1cc(C(=O)NC(Cc2ccccc2)C(=O)C(N)=O)c(C2CCCN(C(=O)OC(C)(C)C)C2)n1 (stereo not drawn) [Compound 624, Tert-Butyl 3-(4-((4-amino-3,4-dioxo-1-phenylbutan-2-yl)carbamoyl)-1-methyl-1H-pyrazol-3-yl)piperidine-1-carboxylate] | < 3 | < 3 | < 3 |
| Cn1cc(C(=O)NC(Cc2ccccc2)C(=O)C(N)=O)c(C2CCOC2)n1 (stereo not drawn) [Compound 627, N-(4-amino-3,4-dioxo-1-phenylbutan-2-yl)-1-methyl-3-(tetrahydrofuran-3-yl)-1H-pyrazole-4-carboxamide] | 3 to 10 | 3 to 10 | < 3 |
| NC(=O)C(=O)C(Cc1ccccc1)NC(=O)c1cn(C(F)F)nc1-c1ccc2ccncc2c1 (stereo not drawn) [Compound 630, N-(4-amino-3,4-dioxo-1-phenylbutan-2-yl)-1-(difluoromethyl)-3-(isoquinolin-7-yl)-1H-pyrazole-4-carboxamide] | < 3 | < 3 | < 3 |

Results, then the molecule that gave them:

| IC50 (Human Calpain 1/NS1) [µM] | IC50 (Human Calpain 9/NS1) [µM] | IC50 (Human Calpain 2/NS1) [µM] | Compound |
| --- | --- | --- | --- |
| < 3 | 3 to 10 | < 3 | NC(=O)C(=O)C(Cc1ccccc1)NC(=O)c1cnoc1Cc1ccccc1 (stereo not drawn) [Compound 491, N-(4-amino-3,4-dioxo-1-phenylbutan-2-yl)-5-benzylisoxazole-4-carboxamide] |
| < 3 | < 3 | < 3 | Cn1cc(C(=O)NC(Cc2ccccc2)C(=O)C(N)=O)c(-c2cccs2)n1 (stereo not drawn) [Compound 615, N-(4-amino-3,4-dioxo-1-phenylbutan-2-yl)-1-methyl-3-(thiophen-2-yl)-1H-pyrazole-4-carboxamide] |
| < 3 | < 3 | < 3 | Cn1cc(C(=O)NC(Cc2ccccc2)C(=O)C(N)=O)c(-c2ccc(Cl)s2)n1 (stereo not drawn) [Compound 621, N-(4-amino-3,4-dioxo-1-phenylbutan-2-yl)-3-(5-chlorothiophen-2-yl)-1-methyl-1H-pyrazole-4-carboxamide] |
| < 3 | < 3 | < 3 | Cn1cc(C(=O)NC(Cc2cccc(C(F)(F)F)c2)C(=O)C(N)=O)c(-c2ccccc2F)n1 (stereo not drawn) [Compound 623, N-(4-amino-3,4-dioxo-1-(3-(trifluoromethyl)phenyl)butan-2-yl)-3-(2-fluorophenyl)-1-methy 1-1H-pyrazole-4-carboxamide] |
| < 3 | < 3 | < 3 | Cn1cc(C(=O)NC(Cc2ccccc2)C(=O)C(N)=O)c(-c2ccc3c(c2)OCCCO3)n1 (stereo not drawn) [Compound 625, N-(4-amino-3,4-dioxo-1-phenylbutan-2-yl)-3-(3,4-dihydro-2H-benzo[b][1,4]dioxepin-7-yl)-1-methyl-1H-pyrazole-4-carboxamide] |
| < 3 | < 3 | < 3 | Cn1cc(-c2nn(C)cc2C(=O)NC(Cc2ccccc2)C(=O)C(N)=O)cn1 (stereo not drawn) [Compound 626, N-(4-amino-3,4-dioxo-1-phenylbutan-2-yl)-1,1′-dimethyl-1H,1′H-[3,4′-bipyrazole]-4-carboxamide] |
| < 3 | < 3 | < 3 | Cn1cc(C(=O)NC(Cc2ccccc2)C(=O)C(N)=O)c(-c2coc3ccccc23)n1 (stereo not drawn) [Compound 628, N-(4-amino-3,4-dioxo-1-phenylbutan-2-yl)-3-(benzofuran-3-yl)-1-methyl-1H-pyrazole-4-carboxamide] |
